The values below come from ChEMBL document CHEMBL4610069, “Chetocochliodins A-I, Epipoly(thiodioxopiperazines) from Chaetomium cochliodes” (J Nat Prod, 2020).

Holding throughout (assay type): functional, cell-based
Test [1] deals with Huh-7. Nature of the test: Cytotoxicity against human HuH7 cells by MTT assay.
For test [2], the system named is HeLa. Nature of the test: Cytotoxicity against human HeLa cells by MTT assay.
For test [3], the system named is A549. The test can be described thus: Cytotoxicity against human A549 cells by MTT assay.
Test [4] has as its system A549. The test can be described thus: Cytotoxicity against human A549 cells up to 100 uM by MTT assay.
Test [5] relates to Huh-7. Nature of the test: Cytotoxicity against human HuH7 cells up to 100 uM by MTT assay.
Test [6] concerns HeLa. Nature of the test: Cytotoxicity against human HeLa cells up to 100 uM by MTT assay.

Active and inactive are the calls of the source. The rule behind the calls is not given here.

On to `CO[C@]1(CO)NC(=O)[C@](Cc2c[nH]c3ccccc23)(SC)NC1=O`, for which the result in test [1], in test [2] and in test [3] was inactive.
Consider `CO[C@@]1(CO)NC(=O)[C@](Cc2c[nH]c3ccccc23)(SC)NC1=O`, for which the outcome in test [1], in test [2] and in test [3] was inactive.
As for `CO[C@]1(CO)NC(=O)[C@](Cc2c[nH]c3ccccc23)(OC)NC1=O`, the outcome in test [4], in test [5] and in test [6] was inactive.
Take `CN1C(=O)[C@]2(Cc3c[nH]c4ccccc34)SSSS[C@@]1(CO)C(=O)N2C`: the IC50 in test [1], in test [2] and in test [3] was 930 to 2450 nM throughout.
Regarding `CS[C@]1(CO)NC(=O)[C@](Cc2c[nH]c3ccccc23)(SC)NC1=O`, the outcome in test [1], in test [2] and in test [3] was inactive.
In the case of `CO[C@]1(CO)NC(=O)[C@@](Cc2c[nH]c3ccccc23)(OC)NC1=O`, the outcome in test [4], in test [5] and in test [6] was inactive.
In the case of `CO[C@]1(Cc2c[nH]c3ccccc23)NC(=O)[C@H](CO)N(C)C1=O`, the outcome in test [4], in test [5] and in test [6] was inactive.
